The values below are quoted from earlier work in paper PMC4021529 (British Journal of Cancer, 2014).

The test system of this data set is advanced solid tumours. The settings on record: phase I trial, advanced solid malignancies, cited from earlier work.

Molecules are shown by their SMILES. Like-named read-outs stand apart in the source and are kept apart here.

On to `C[C@@H](Oc1cc(-n2cnc3ccc(CN4CCN(C)CC4)cc32)sc1C(N)=O)c1ccccc1C(F)(F)F` [GSK461364], for which the objective responses entry (ref Olmos et al, 2011) is “no objective responses”.
As to `COc1ccc(S(=O)(=O)N(C(C)=O)c2ccccc2/C=C/c2cc[n+]([O-])cc2)cc1` [HMN-214], the objective responses result (ref Garland et al, 2006) is “no objective responses”.
